Experimental data taken from PMC5743070 (The Journal of Biological Chemistry, 2017).

What was measured:
TTD (UHRF1_121–286) = molecular target: T1, TTD (UHRF1_121–286) (Homo sapiens, UniProt Q96T88); assay: HSQC competition of BPC and linker peptide on TTD; type: binding; settings: BPC 2.4 mM, linker peptide 3.0 mM, 5% DMSO; I211, I212 and E281 resonances in HSQC
T1 construct: UHRF1_121–286 corresponding to the TTD; made in house
T1 sequence (Q96T88 121-286): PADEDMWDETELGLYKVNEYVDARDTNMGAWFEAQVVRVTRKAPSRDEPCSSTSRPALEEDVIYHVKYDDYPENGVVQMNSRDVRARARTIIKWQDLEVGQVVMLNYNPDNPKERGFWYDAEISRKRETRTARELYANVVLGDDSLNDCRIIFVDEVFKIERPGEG
Protocol: NMR samples were buffered in 20 mM sodium phosphate (pH 7.5), 150 mM NaCl, 5 mM DTT, 5 mM β-mercaptoethanol, 2 mM TCEP, and 10 μM ZnSO4. The protein concentration was between 200 and 300 μM for all samples. The data were collected at 25 °C on Bruker spectrometers equipped with cryoprobes and operating at 500, 600, or 800 MHz. The assignment of backbone TTD–PHD resonances was accomplished using the ABACUS method ([29]) for which standard backbone and ^15N-edited NOESY spectra were collected using ^15N/^13C/^2H- or ^15N/^13C-labeled protein. All 3D experiments were acquired using non-uniform sampling and processed using the software MDDGUI ([30]) or qMDD ([31]). ^15N-Labeled TTD–PHD was used to acquire ^15N T1 and T2 relaxation and ^1H-^15N heteronuclear NOE measurements ([32]) collected using standard Bruker pulse schemes in an interleaved manner. For T1 measurements, the variable delay was set to 0.1, 0.4, 0.8, 1.5, 2.0, 2.5, 3.5, and 5 s. For T2 measurements, the variable delay was set to 16, 32, 48, 64, 80, 96, 128, and 144 ms. The D1 was 3 s for all experiments. Reported values were the average from two measurements. All spectra were processed using NMRPipe ([33]) and analyzed with SPARKY ([34]). […]
trated by the perturbation of I211, I212 and E281 resonances in HSQC spectra of the TTD in a competition assay. […]

TTD–PHD (UHRF1_126–366) = molecular target: T2, TTD–PHD (UHRF1_126–366) (Homo sapiens, UniProt Q96T88); assay: SES ensemble fitting of SAXS data of TTD–PHD with BPC
T2 construct: His tag (TEV-cleavable) (N); made in house
T2 sequence (Q96T88 126-366): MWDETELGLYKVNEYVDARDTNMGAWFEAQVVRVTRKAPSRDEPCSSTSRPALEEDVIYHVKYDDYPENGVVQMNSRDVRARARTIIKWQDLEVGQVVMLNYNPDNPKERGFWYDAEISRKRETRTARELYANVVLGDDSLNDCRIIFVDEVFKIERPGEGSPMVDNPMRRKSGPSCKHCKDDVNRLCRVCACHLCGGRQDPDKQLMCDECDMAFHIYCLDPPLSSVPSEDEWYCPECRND
From the text: The Rg-based Kratky plot is shifted to higher coordinate values with respect to its position for apo TTD–PHD (supplemental Fig. S4). […] We performed SES fitting of SAXS data collected for TTD–PHD in the presence of BPC using MDPIN/OUT. The optimal ensemble, OEBPC(SAXS), fits the data reasonably well in the q range of 0 < q < 0.2. The Rg distribution is bimodal with the major peak at ∼25 Å and a minor peak at ∼34 Å (Fig. 4D). […] These less-compact, “linker-out” conformers should be unable to bind to H3K9me3 peptides in a cooperative manner (as in PDB code 3ASK ([10], [23])) and, in addition, be unable to bind via the isolated TTD because groove-H3K9me3 contacts found to be essential for this binding mode, as reported by Nady et al. ([9]), are blocked.
We used an ensemble approach for the structural characterization of the TTD–PHD in solution by utilizing the SES protocol ([18]). The strategy on which the SES method is based consists of two main steps: 1) generate the initial ensemble of conformations to approximate the conformational space available for a system in solution and 2) find the optimal population weight for each member of the initial ensemble that minimizes the discrepancy between the ensemble-predicted and the observed experimental data. The goodness of the ensemble fit is measured as χ^2. […] The ARMOR output was analyzed to select the optimal ensemble size using the l-curve ([18]), and the vector of the optimal weights, w, was calculated by averaging over top near optimal solutions with similar value of χ^2. […]

[1] = SES fitting using MDPIN/OUT, TTD–PHD with BPC

## N=C(N)N1CCC(Cc2ccccc2)CC1 [BPC, 4-benzylpiperidine-1-carboximidamide]
TTD (UHRF1_121–286)
  competition for the TTD groove: compete directly for the TTD groove
TTD–PHD (UHRF1_126–366); 6,000 starting structures with linker bound to groove
  contribution of linker-bound structures to OEBPC(SAXS): zero contribution
TTD–PHD (UHRF1_126–366); [1]
  Rg distribution of OEBPC(SAXS), major peak: ~25 Å
  Rg distribution of OEBPC(SAXS), minor peak: ~34 Å
